Data from patent US10450314B2, “Pteridine derivatives as modulators of ROR gamma” (Boehringer Ingelheim International GmbH, priority 2015, dated 2019).
Blank lines part the entries; values can stand above or below the compound they belong to.

Assays:
[1] = molecular target: T1, RORγ (Homo sapiens, UniProt P51449); assay: RORγ Reporter Gene Assay (RGA), luciferase transactivation in transiently transfected HEK 293 cells; type: cell-based; settings: HEK 293 cells cotransfected with pGL4.3 luc2P/GAL4UAS and pBIND Gal4DBD hRORC LBD; 20-24 h incubation
T1 construct: expressed in transfected cells; host or cells: HEK 293 cells, transiently cotransfected with pGL4.3 luc2P/GAL4UAS/Hygro reporter
T1 sequence (P51449 269-508 limits assumed): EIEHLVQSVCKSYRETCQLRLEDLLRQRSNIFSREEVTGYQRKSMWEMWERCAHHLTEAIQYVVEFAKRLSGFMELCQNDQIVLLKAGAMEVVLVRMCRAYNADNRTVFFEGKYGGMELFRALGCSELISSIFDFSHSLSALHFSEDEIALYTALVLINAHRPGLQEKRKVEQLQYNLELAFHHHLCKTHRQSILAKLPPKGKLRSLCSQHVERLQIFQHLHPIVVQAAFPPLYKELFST
Experimental: Reporter Gene Assay (RGA)
A nuclear receptor transactivation assay is performed to quantitate the ability of test compounds to inhibit RORγ transactivation of a luciferase reporter. A similar assay is described in: Khan et al., Bioorganic & Medicinal Chemistry Letters 23 (2013), 532-536. The system uses transiently transfected HEK 293 cells cotransfected with two plasmids (pGL4.3, luc2P/GAL4UAS/Hygro, and pBIND, Gal4DBD hRORC LBD1-3). The positive control is co-transiently transfected with both plasmids, and the negative control contains the pGL4.3 promoter sequence. Assays are assembled in 384 well plates where transiently transfected cells and test compound at varying concentrations are incubated for 20-24 h. The next day, assays plates are taken out and equilibrated at RT for 20-30 minutes. Bright-Glo™ Luciferase Assay System is used to detect Luciferase production. After addition of Bright GLO detection reagent, the plates are incubated at RT for 20 minutes. The plates are read on an Envision plate reader to measure luminescence signal. The RLU signal is converted to POC relative to control and blank wells.
Compound Dilution Buffer:
Bright Glo Luciferase Assay System: Promega #E2620
Thaw lysis buffer provided in kit, add 100 mL lysis buffer to substrate powder.

[2] = Human liver microsome (HLM) metabolic stability assay; type: in vitro ADME; settings: human liver microsomes, 1 uM compound, 37° C., 60 min; % hepatic blood flow
Experimental: Assessment of Metabolic Stability
The 5 time point, high-throughput human liver microsome (HLM) metabolic stability assay is designed to determine in vitro compound metabolism. Compounds are incubated with HLMs at a concentration of 1 uM, at 37° C., for a total of 60 min. The percent of compound remaining at 5, 15, 30, and 60 min is used to calculate the t1/2 (min), CLint (mL/min/kg), CLh (mL/min/kg), and % Qh. The assay is based on a 96-well format and can accommodate up to 92 compounds per plate (n=1).
Using the 96-well multi-channel head, the Biomek FX, equipped with a Peltier heating block/shaker, is programmed to accomplish the following steps: • 1. Pipette 175 uL of 1.15 mg/mL microsomes into each of the 96 conical inserts (Analytical Sales and Products, catalog number 96PL05) that fit into the plate of the Peltier heating block/shaker (the incubation plate) • 2. Add 5 uL of compounds from the assay plate to the microsomes and shake the mixture at 600 rpm at 42.1° C. for 10 min (a setting of 42.1° C. on the Peltier is required for the samples to incubate at 37° C.) • 3. After 10 min, prompt the user to add the NADPH plate to the deck and add 20 uL from the NADPH plate to the incubation plate to start the reaction • 4. Add 215 uL of 100%, cold acetonitrile containing an internal standard(s) to a 0 minute, 5 minute, 15 minute, 30 minute, and 60 minute “quench” plate • 5. At 0 min, 5 min, 15 min, 30 min, and 60 min into the incubation, aspirate 12 uL from the incubation mixture and add it to the quench solution to stop the reaction • 6. Add 185 uL HPLC grade water to each well of the 0, 5, 15, 30 and 60 minute quench plates to dilute compounds to the appropriate concentration for the mass spectrometer
After all time points are collected, the quench plates are sealed with 96-well pierceable plate mats or heat sealing foil and centrifuged at 3000 rpm for 15 min to pellet the microsomes.
The plates are analyzed using LC/MS/MS with electron spray ionization (ESI) and the previously determined MRM transitions. The LC method includes the following parameters:
Using an Excel template in Activitybase, the peak areas corresponding to 5, 15, 30 and 60 min are compared to the peak area at 0 min to calculate the percent of remaining compound using the following equation:
Percent compound remaining=(AUC at Time t min/AUC at Time 0 min)×100 where t=0, 5, 15, 30 or 60 min.
Time (min) is plotted against the natural logarithm (Ln) of the percent compound remaining to determine the slope. The slope is used to calculate t1/2 (min) using the equation, t1/2=0.693/slope.
Clint, Intrinsic Clearance

SMILES: CCS(=O)(=O)c1ccc(CNc2nc3c(C)nc(-c4c(C)ncnc4C4CC4)nc3n([C@@H](C)CF)c2=O)nc1 [Example 48]
- IC50 [1]: 1200 nM
- HLM (% Qh) [2]: <24 % Qh

SMILES: CCS(=O)(=O)c1ccc(CNc2nc3c(C)nc(-c4c(OC)ncnc4C4CC4)nc3n(CC(C)C)c2=O)cn1 [Example 78]
- IC50 [1]: 275 nM
- HLM (% Qh) [2]: <24 % Qh

SMILES: CC[C@H](C)n1c(=O)c(NCc2ncc(S(=O)(=O)CC)cn2)nc2c(C)nc(-c3c(C)ncnc3C3CC3)nc21 [Example 16]
- IC50 [1]: 113 nM
- HLM (% Qh) [2]: <24 % Qh

SMILES: CCS(=O)(=O)c1ccc(CNc2nc3c(C)nc(-c4c(OC)ncnc4C4CC4)nc3n([C@@H](C)C3CC3)c2=O)cn1 [Example 66]
- IC50 [1]: 64 nM
- HLM (% Qh) [2]: 25 % Qh

SMILES: Cc1ncnc(C2CC2)c1-c1nc(C)c2nc(NCc3ccc(S(N)(=O)=O)cn3)c(=O)n([C@@H](C)C(F)(F)F)c2n1 [Example 96]
- IC50 [1]: 280 nM
- HLM (% Qh) [2]: <24 % Qh

SMILES: CCS(=O)(=O)c1ccc(CNc2nc3c(C)nc(-c4c(OC)ncnc4C4CC4)nc3n([C@@H](C)C3CC3)c2=O)nc1 [Example 71]
- IC50 [1]: 65 nM
- HLM (% Qh) [2]: 35 % Qh

SMILES: CCS(=O)(=O)c1ccc(CNc2nc3c(C)nc(-c4c(OC)ncnc4C4CC4)nc3n(C(C)C)c2=O)nc1 [Example 77]
- IC50 [1]: 680 nM
- HLM (% Qh) [2]: <24 % Qh

SMILES: CC[C@@H](C)n1c(=O)c(NCc2ccc(S(C)(=O)=O)cn2)nc2c(C)nc(-c3c(OC)ncnc3C3CC3)nc21 [Example 2]
- IC50 [1]: 110 nM
- HLM (% Qh) [2]: <24 % Qh

SMILES: CC[C@H](C)n1c(=O)c(NCc2ccc(S(C)(=N)=O)cc2)nc2c(C)nc(-c3c(C)ncnc3C3CC3)nc21 (stereo partly shown) [Example 84]
- IC50 [1]: 195 nM
- HLM (% Qh) [2]: 33 % Qh

SMILES: CC[C@@H](C)n1c(=O)c(NCc2ccc(S(C)(=O)=O)cn2)nc2c(CF)nc(-c3c(C)ncnc3C3CC3)nc21 [Example 54]
- IC50 [1]: 225 nM
- HLM (% Qh) [2]: 41 % Qh

SMILES: CC[C@@H](C)n1c(=O)c(NCc2ccc(S(=O)(=O)CC)cn2)nc2c(CO)nc(-c3c(OC)ncnc3C3CC3)nc21 [Example 1]
- IC50 [1]: 200 nM
- HLM (% Qh) [2]: <24 % Qh

SMILES: Cc1ncnc(C2CC2)c1-c1nc(C)c2nc(NCc3cnc(S(C)(=O)=O)cn3)c(=O)n([C@@H](C)C(F)(F)F)c2n1 [Example 37]
- IC50 [1]: 455 nM
- HLM (% Qh) [2]: <24 % Qh

SMILES: CC[C@@H](C)n1c(=O)c(NCC2CCN(S(=O)(=O)CC)CC2)nc2c(C)nc(-c3c(C)ncnc3C3CC3)nc21 [Example 24]
- IC50 [1]: 120 nM
- HLM (% Qh) [2]: 69 % Qh

SMILES: CC[C@@H](C)n1c(=O)c(NCc2ccc(S(C)(=O)=O)cn2)nc2c(CO)nc(-c3c(C)ncnc3C3CC3)nc21 [Example 52]
- IC50 [1]: 335 nM
- HLM (% Qh) [2]: <24 % Qh

SMILES: CCS(=O)(=O)c1ccc(CNc2nc3c(C)nc(-c4c(OC)ncnc4C4CC4)nc3n(CC(C)C)c2=O)nc1 [Example 80]
- IC50 [1]: 255 nM
- HLM (% Qh) [2]: <24 % Qh

SMILES: CC[C@H](C)n1c(=O)c(NCc2ccc(S(=O)(=O)CC)nc2)nc2c(C)nc(-c3c(C)ncnc3C3CC3)nc21 [Example 64]
- IC50 [1]: 95 nM
- HLM (% Qh) [2]: <24 % Qh

SMILES: COc1ncnc(C2CC2)c1-c1nc(C)c2nc(NCc3ccc(S(C)(=N)=O)cc3)c(=O)n([C@@H](C)C3CC3)c2n1 (stereo partly shown) [Example 67]
- IC50 [1]: 110 nM
- HLM (% Qh) [2]: <24 % Qh

SMILES: Cc1ncnc(C2CC2)c1-c1nc(C)c2nc(NCc3ccc(S(N)(=O)=O)nc3)c(=O)n([C@@H](C)C(F)(F)F)c2n1 [Example 98]
- IC50 [1]: 1100 nM
- HLM (% Qh) [2]: <24 % Qh

SMILES: CCS(=O)(=O)c1cnc(CNc2nc3c(C)nc(-c4c(C)ncnc4C4CC4)nc3n([C@H](C)C(F)F)c2=O)nc1 [Example 93]
- IC50 [1]: 185 nM
- HLM (% Qh) [2]: <24 % Qh

SMILES: CC[C@H](C)n1c(=O)c(NCc2ccc(S(=O)(=O)CC)cn2)nc2c(C)nc(-c3c(C)ncnc3C3CC3)nc21 [Example 60]
- IC50 [1]: 80 nM
- HLM (% Qh) [2]: <24 % Qh

SMILES: CC[C@@H](C)n1c(=O)c(NCc2ccc(S(N)(=O)=O)cn2)nc2c(C)nc(-c3c(C)ncnc3C3CC3)nc21 [Example 76]
- IC50 [1]: 275 nM
- HLM (% Qh) [2]: 34 % Qh

SMILES: CC[C@H](C)n1c(=O)c(NCc2ccc(S(C)(=N)=O)cc2)nc2c(C)nc(-c3c(OC)ncnc3C3CC3)nc21 (stereo partly shown) [Example 83]
- IC50 [1]: 250 nM
- HLM (% Qh) [2]: 32 % Qh

SMILES: CC[C@@H](C)n1c(=O)c(NCc2ncc(S(C)(=O)=O)cn2)nc2c(C)nc(-c3c(C)ncnc3C3CC3)nc21 [Example 57]
- IC50 [1]: 500 nM
- HLM (% Qh) [2]: <24 % Qh

SMILES: CCS(=O)(=O)c1ccc(CNc2nc3c(C)nc(-c4c(C)ncnc4C4CC4)nc3n([C@@H](C)C(F)(F)F)c2=O)nc1 [Example 79]
- IC50 [1]: 130 nM
- HLM (% Qh) [2]: <24 % Qh

SMILES: CCS(=O)(=O)c1ccc(CNc2nc3c(C)nc(-c4c(C)ncnc4C4CC4)nc3n([C@@H](C)C3CC3)c2=O)nc1 [Example 68]
- HLM (% Qh) [2]: <24 % Qh

Other lines, results leading:

- IC50 [1]: 170 nM
- HLM (% Qh) [2]: 48 % Qh
SMILES: CC[C@@H](C)n1c(=O)c(NCc2ccc(S(=N)(=O)CC)cc2)nc2c(C)nc(-c3c(OC)ncnc3C3CC3)nc21 (single isomer, unassigned) [Example 29b]

- IC50 [1]: 510 nM
- HLM (% Qh) [2]: 27 % Qh
SMILES: COc1ncnc(C2CC2)c1-c1nc(C)c2nc(NCc3ccc(S(C)(=N)=O)cn3)c(=O)n([C@@H](C)C(F)(F)F)c2n1 (single isomer, unassigned) [Example 105b]

- IC50 [1]: 840 nM
- HLM (% Qh) [2]: 28 % Qh
SMILES: Cc1ncnc(C2CC2)c1-c1nc(C)c2nc(NCc3ccc(S(C)(=N)=O)cn3)c(=O)n([C@@H](C)C(F)(F)F)c2n1 (single isomer, unassigned) [Example 106b]

- IC50 [1]: 230 nM
- HLM (% Qh) [2]: 41 % Qh
SMILES: COc1ncnc(C2CC2)c1-c1nc(C)c2nc(NCc3ccc(S(C)(=N)=O)cc3)c(=O)n([C@@H](C)C(F)(F)F)c2n1 (single isomer, unassigned) [Example 99a]

- IC50 [1]: 109 nM
- HLM (% Qh) [2]: 25 % Qh
SMILES: CC[C@@H](C)n1c(=O)c(NCc2ccc(S(=N)(=O)CC)cc2)nc2c(C)nc(-c3c(C)ncnc3C3CC3)nc21 (single isomer, unassigned) [Example 26a]

- IC50 [1]: 535 nM
- HLM (% Qh) [2]: <24 % Qh
SMILES: CCS(=N)(=O)c1ccc(CNc2nc3c(C)nc(-c4c(C)ncnc4C4CC4)nc3n([C@@H](C)C(F)(F)F)c2=O)nc1 (single isomer, unassigned) [Example 102a]

- IC50 [1]: 270 nM
- HLM (% Qh) [2]: <24 % Qh
SMILES: CCS(=N)(=O)c1ccc(CNc2nc3c(C)nc(-c4c(C)ncnc4C4CC4)nc3n([C@@H](C)C3CC3)c2=O)nc1 (single isomer, unassigned) [Example 42a]

- IC50 [1]: 260 nM
- HLM (% Qh) [2]: 41 % Qh
SMILES: COc1ncnc(C2CC2)c1-c1nc(C)c2nc(NCc3ccc(S(C)(=N)=O)cc3)c(=O)n([C@@H](C)C(F)(F)F)c2n1 (single isomer, unassigned) [Example 99b]

- IC50 [1]: 295 nM
- HLM (% Qh) [2]: <24 % Qh
SMILES: Cc1ncnc(C2CC2)c1-c1nc(C)c2nc(NCc3ccc(S(C)(=N)=O)cc3)c(=O)n([C@@H](C)C(F)(F)F)c2n1 (single isomer, unassigned) [Example 91a]
